Test results as given in patent publication US10927123B2, “Modulators of the beta-3 adrenergic receptor useful for the treatment or prevention of disorders related thereto” (Arena Pharmaceuticals, Inc., priority 2016, dated 2021).

These compounds were tested against Beta-3 Adrenergic Receptor (Homo sapiens (Human), UniProt P13945) (assay: HTRF cAMP antagonist assay (IC50 determination)). Conditions: CHO-K1 cells stably expressing recombinant receptor; antagonism of isoproterenol at EC90; cAMP readout.
Format: cell-based
Summary of the method: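 CHO-K1 cells stably expressing receptor, 1500 cells/well, preincubated briefly with 10-point 5-fold compound series (top final typically 10 or 100 μM) in PBS with 1 mM IBMX, then challenged with isoproterenol at EC90 for 1 h at room temperature. cAMP read by HTRF against on-plate standard curve; IC50 from dose-response.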

Chain of Beta-3 Adrenergic Receptor (P13945 whole entry, species assumed): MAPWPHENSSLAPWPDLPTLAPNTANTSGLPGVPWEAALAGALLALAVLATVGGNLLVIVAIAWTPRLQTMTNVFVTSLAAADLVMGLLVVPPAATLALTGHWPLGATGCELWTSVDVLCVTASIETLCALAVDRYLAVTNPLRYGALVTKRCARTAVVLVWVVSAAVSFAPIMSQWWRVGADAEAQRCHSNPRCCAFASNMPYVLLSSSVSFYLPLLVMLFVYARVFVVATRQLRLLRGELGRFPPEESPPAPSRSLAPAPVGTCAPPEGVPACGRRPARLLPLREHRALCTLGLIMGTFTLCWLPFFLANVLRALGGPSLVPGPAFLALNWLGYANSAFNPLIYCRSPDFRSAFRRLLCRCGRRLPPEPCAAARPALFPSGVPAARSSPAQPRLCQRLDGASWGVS

Question: Which IC50 does the source give for CCn1cc(S(=O)(=O)N2CCC3(CC2)C[C@@H](NC[C@H](O)COc2cccc(S(=O)(=O)C4CC4)c2)CO3)c(=O)c2ccc(F)cc21 [Compound 316, 3-((R)-3-((S)-3-(3-(cyclopropylsulfonyl)phenoxy)-2-hydroxypropylamino)-1-oxa-8-azaspiro[4.5]decan-8-ylsulfonyl)-1-ethyl-7-fluoroquinolin-4(1H)-one] here?
Answer: 63.8 nM

Question: Which IC50 does the source give for CCn1cc(S(=O)(=O)N2CCC3(CC2)C[C@@H](NC[C@H](O)COc2cccc(S(=O)(=O)C4CC4)c2)CO3)c(=O)c2cc(C)ccc21 [Compound 317, 3-((R)-3-((S)-3-(3-(cyclopropylsulfonyl)phenoxy)-2-hydroxypropylamino)-1-oxa-8-azaspiro[4.5]decan-8-ylsulfonyl)-1-ethyl-6-methylquinolin-4(1H)-one] here?
Answer: 104 nM

Question: For CCn1cc(S(=O)(=O)N2CCC3(CC2)C[C@@H](NC[C@H](O)COc2cccc(S(=O)(=O)C4CC4)c2)CO3)c(=O)c2ccc(C)cc21 [Compound 318, 3-((R)-3-((S)-3-(3-(cyclopropylsulfonyl)phenoxy)-2-hydroxypropylamino)-1-oxa-8-azaspiro[4.5]decan-8-ylsulfonyl)-1-ethyl-7-methylquinolin-4(1H)-one], which IC50 is on record?
Answer: 95.2 nM

Question: With O=S(=O)(c1cccc(OC[C@@H](O)CN[C@H]2COC3(CCN(S(=O)(=O)c4cnc5cn[nH]c5c4)CC3)C2)c1)C1CC1 [Compound 319, (S)-1-((R)-8-(1H-pyrazolo[4,3-b]pyridin-6-ylsulfonyl)-1-oxa-8-azaspiro[4.5]decan-3-ylamino)-3-(3-(cyclopropylsulfonyl)phenoxy)propan-2-ol] as the compound, how does the IC50 read?
Answer: 16.5 nM

Question: For CS(=O)(=O)c1cccc(OC[C@@H](O)CN[C@H]2COC3(CCN(S(=O)(=O)c4cnc5cc[nH]c5c4)CC3)C2)c1 [Compound 320, (S)-1-((R)-8-(1H-pyrrolo[3,2-b]pyridin-6-ylsulfonyl)-1-oxa-8-azaspiro[4.5]decan-3-ylamino)-3-(3-(methylsulfonyl)phenoxy)propan-2-ol], which IC50 is on record?
Answer: 11.2 nM

Question: How did the IC50 turn out when CC(C)S(=O)(=O)c1cccc(OC[C@@H](O)CN[C@H]2COC3(CCN(S(=O)(=O)c4cnc5cc[nH]c5c4)CC3)C2)c1 [Compound 321, (S)-1-((R)-8-(1H-pyrrolo[3,2-b]pyridin-6-ylsulfonyl)-1-oxa-8-azaspiro[4.5]decan-3-ylamino)-3-(3-(isopropylsulfonyl)phenoxy)propan-2-ol] was run?
Answer: 17.8 nM

Question: For CCn1cc(S(=O)(=O)N2CCC3(CC2)C[C@@H](NC[C@H](O)COc2cccc(S(C)(=O)=O)c2)CO3)c(=O)c2cccc(F)c21 [Compound 322, 1-ethyl-8-fluoro-3-((R)-3-((S)-2-hydroxy-3-(3-(methylsulfonyl)phenoxy)propylamino)-1-oxa-8-azaspiro[4.5]decan-8-ylsulfonyl)quinolin-4(1H)-one], which IC50 is on record?
Answer: 21.8 nM

Question: How did the IC50 turn out when CC(C)S(=O)(=O)c1cccc(OC[C@@H](O)CN[C@H]2COC3(CCN(S(=O)(=O)c4cnc5c(F)cccc5c4O)CC3)C2)c1 [Compound 323, 8-fluoro-3-((R)-3-((S)-2-hydroxy-3-(3-(isopropylsulfonyl)phenoxy)propylamino)-1-oxa-8-azaspiro[4.5]decan-8-ylsulfonyl)quinolin-4-ol] was run?
Answer: 49.6 nM

Question: Cc1ccc2ncc(S(=O)(=O)N3CCC4(CC3)C[C@@H](NC[C@H](O)COc3cccc(S(=O)(=O)C5CC5)c3)CO4)c(O)c2c1 [Compound 324, 3-((R)-3-((S)-3-(3-(cyclopropylsulfonyl)phenoxy)-2-hydroxypropylamino)-1-oxa-8-azaspiro[4.5]decan-8-ylsulfonyl)-6-methylquinolin-4-ol] was tested. Which IC50 did it give?
Answer: 22.5 nM

Question: For O=S(=O)(c1cccc(OC[C@@H](O)CN[C@H]2COC3(CCN(S(=O)(=O)c4cnc5ccc(F)cc5c4O)CC3)C2)c1)C1CC1 [Compound 325, 3-((R)-3-((S)-3-(3-(cyclopropylsulfonyl)phenoxy)-2-hydroxypropylamino)-1-oxa-8-azaspiro[4.5]decan-8-ylsulfonyl)-6-fluoroquinolin-4-ol], which IC50 is on record?
Answer: 34 nM

Question: O=c1c(S(=O)(=O)N2CCC3(CC2)C[C@@H](NC[C@H](O)COc2cccc(S(=O)(=O)C4CC4)c2)CO3)c[nH]c2ccccc12 [Compound 326, 3-((R)-3-((S)-3-(3-(cyclopropylsulfonyl)phenoxy)-2-hydroxypropylamino)-1-oxa-8-azaspiro[4.5]decan-8-ylsulfonyl)quinolin-4(1H)-one] was tested. Which IC50 did it give?
Answer: 17.3 nM

Question: For Cc1cccc2c(O)c(S(=O)(=O)N3CCC4(CC3)C[C@@H](NC[C@H](O)COc3cccc(S(=O)(=O)C5CC5)c3)CO4)cnc12 [Compound 327, 3-((R)-3-((S)-3-(3-(cyclopropylsulfonyl)phenoxy)-2-hydroxypropylamino)-1-oxa-8-azaspiro[4.5]decan-8-ylsulfonyl)-8-methylquinolin-4-ol], which IC50 is on record?
Answer: 28.9 nM

Question: Which IC50 does the source give for O=S(=O)(c1cccc(OC[C@@H](O)CN[C@H]2COC3(CCN(S(=O)(=O)c4cnc5c(F)cccc5c4O)CC3)C2)c1)C1CC1 [Compound 328, 3-((R)-3-((S)-3-(3-(cyclopropylsulfonyl)phenoxy)-2-hydroxypropylamino)-1-oxa-8-azaspiro[4.5]decan-8-ylsulfonyl)-8-fluoroquinolin-4-ol] here?
Answer: 35.4 nM

Question: With O=S(=O)(c1cccc(OC[C@@H](O)CN[C@H]2COC3(CCN(S(=O)(=O)c4cnc5cc(F)ccc5c4O)CC3)C2)c1)C1CC1 [Compound 329, 3-((R)-3-((S)-3-(3-(cyclopropylsulfonyl)phenoxy)-2-hydroxypropylamino)-1-oxa-8-azaspiro[4.5]decan-8-ylsulfonyl)-7-fluoroquinolin-4-ol] as the compound, how does the IC50 read?
Answer: 29.5 nM

Question: With Cc1ccc2c(O)c(S(=O)(=O)N3CCC4(CC3)C[C@@H](NC[C@H](O)COc3cccc(S(=O)(=O)C5CC5)c3)CO4)cnc2c1 [Compound 330, 3-((R)-3-((S)-3-(3-(cyclopropylsulfonyl)phenoxy)-2-hydroxypropylamino)-1-oxa-8-azaspiro[4.5]decan-8-ylsulfonyl)-7-methylquinolin-4-ol] as the compound, how does the IC50 read?
Answer: 70.1 nM

Question: With CCn1cc(S(=O)(=O)N2CCC3(CC2)C[C@@H](NC[C@H](O)COc2cccc(S(=O)(=O)C(C)C)c2)CO3)c(=O)c2cccc(F)c21 [Compound 331, 1-ethyl-8-fluoro-3-((R)-3-((S)-2-hydroxy-3-(3-(isopropylsulfonyl)phenoxy)propylamino)-1-oxa-8-azaspiro[4.5]decan-8-ylsulfonyl)quinolin-4(1H)-one] as the compound, how does the IC50 read?
Answer: 30 nM

Question: For CCn1cc(S(=O)(=O)N2CCC3(CC2)C[C@@H](NC[C@H](O)COc2cccc(S(=O)(=O)C(C)C)c2)CO3)c(=O)c2ccccc21 [Compound 332, 1-ethyl-3-((R)-3-((S)-2-hydroxy-3-(3-(isopropylsulfonyl)phenoxy)propylamino)-1-oxa-8-azaspiro[4.5]decan-8-ylsulfonyl)quinolin-4(1H)-one], which IC50 is on record?
Answer: 42.3 nM

Question: How did the IC50 turn out when CCn1cc(S(=O)(=O)N2CCC3(CC2)C[C@@H](NC[C@H](O)COc2cccc(S(=O)(=O)C4CC4)c2)CO3)c(=O)c2cccc(F)c21 [Compound 333, 3-((R)-3-((S)-3-(3-(cyclopropylsulfonyl)phenoxy)-2-hydroxypropylamino)-1-oxa-8-azaspiro[4.5]decan-8-ylsulfonyl)-1-ethyl-8-fluoroquinolin-4(1H)-one] was run?
Answer: 16.3 nM

Question: With CS(=O)(=O)c1ccc(OC[C@@H](O)CNC2COC3(CCN(S(=O)(=O)c4ccc5ccccc5c4)CC3)C2)cc1 (stereo partly drawn) [Compound 334, (2S)-1-(4-(methylsulfonyl)phenoxy)-3-(8-(naphthalen-2-ylsulfonyl)-1-oxa-8-azaspiro[4.5]decan-3-ylamino)propan-2-ol] as the compound, how does the IC50 read?
Answer: 79.9 nM

Question: Which IC50 does the source give for CS(=O)(=O)Cc1cccc(OC[C@@H](O)CNC2COC3(CCN(S(=O)(=O)c4ccc5ccccc5c4)CC3)C2)c1 (stereo partly drawn) [Compound 335, (2S)-1-(3-(methylsulfonylmethyl)phenoxy)-3-(8-(naphthalen-2-ylsulfonyl)-1-oxa-8-azaspiro[4.5]decan-3-ylamino)propan-2-ol] here?
Answer: 14.4 nM

Question: With CS(=O)(=O)Cc1cccc(OC[C@@H](O)CN[C@H]2COC3(CCN(S(=O)(=O)c4ccc5ncccc5c4)CC3)C2)c1 [Compound 336, (S)-1-(3-(methylsulfonylmethyl)phenoxy)-3-((R)-8-(quinolin-6-ylsulfonyl)-1-oxa-8-azaspiro[4.5]decan-3-ylamino)propan-2-ol] as the compound, how does the IC50 read?
Answer: 102 nM

Question: Which IC50 does the source give for CCn1cc(S(=O)(=O)N2CCC3(CC2)C[C@@H](NC[C@@H](O)COc2cccc(S(C)(=O)=O)c2)CO3)c(=O)c2ccccc21 [Compound 337, 1-ethyl-3-((R)-3-((R)-2-hydroxy-3-(3-(methylsulfonyl)phenoxy)propylamino)-1-oxa-8-azaspiro[4.5]decan-8-ylsulfonyl)quinolin-4(1H)-one] here?
Answer: 1690 nM

Question: Which IC50 does the source give for CCn1cc(S(=O)(=O)N2CCC3(CC2)C[C@H](NC[C@H](O)COc2cccc(S(C)(=O)=O)c2)CO3)c(=O)c2ccccc21 [Compound 338, 1-ethyl-3-((S)-3-((S)-2-hydroxy-3-(3-(methylsulfonyl)phenoxy)propylamino)-1-oxa-8-azaspiro[4.5]decan-8-ylsulfonyl)quinolin-4(1H)-one] here?
Answer: 32.2 nM
